US7008949B2, “Heterocyclic compounds which inhibit leukocyte adhesion mediated by α4 integrins” (Elan Pharmaceuticals, Inc., priority 2003, dated 2006)
≈ marks a conversion by molar mass, not a printed value.

Tests used:
[1] = molecular target: T1, α4β1 Integrin (Homo sapiens, UniProt P05556+P13612); assay: α4β1 Integrin Adhesion Assay: Jurkat cell adhesion to human plasma fibronectin; type: cell-based; conditions: Jurkat cells
T1 construct: endogenous in cells; host or cells: Jurkat cells
Description: 96 well plates (Costar 3590 EIA plates) were coated with human fibronectin (Gibco/BRL, cat #33016-023) at a concentration of 10 μg/mL overnight at 4° C. The plates were then blocked with a solution of bovine serum albumin (BSA; 0.3%) in saline. Jurkat™ cells (maintained in log phase growth) were labeled with Calcein AM according to the manufacturer's instructions, and suspended at a concentration of 2×10^6 cells/mL in Hepes/Saline/BSA. The cells were then exposed to test and control compounds for 30 minutes at room temperature before transfer to individual wells of the fibronectin coated plate. Adhesion was allowed to occur for 35 minutes at 37° C. The wells were then washed by gentle aspiration and pipetting with fresh saline. Fluorescence associated with the remaining adherent cells was quantified using a fluorescence plate reader at EX 485/EM 530.
Cell cultures were prepared by first splitting the stationary phase Jurkat™ cells at 1:10 on day one, and 1:2 on day two to perform assay on day 3. The cells split 1:10 on day one were split 1:4 on day 3 for a day 4 assay.
The assay plates were prepared by first making a working solution of Gibco/BRL Human Fibronectin (cat # 33016-023) in PBS++, at 10 μg/mL.
A Costar 3590 EIA plate was then coated with 50 μL/well for 2 hours at room temperature (thought it can also be left overnight at 4° C.). Finally the plate was asperated and blocked with Hepes/Saline Buffer, 100 μL/well, for 1 hour at RT followed by washing three times with 150 μL of PBS++.
Compound dilutions were accomplished by preparing 1:3 serial dilutions of compounds as follows. For each plate (4 compounds/plate) 600 μL were added to 4 Bio-Rad Titertubes in a Titertube rack. Enough compound was added to each appropriate tube to give a 2× concentration using methods well known in the art. Using Falcon Flexiplates, 100 μL of Hepes/Saline buffer or human serum were added to rows B through G. A multi-channel pipetter set to 180 μL was used to with four tips spaced evenly the pipetter. Each set of four tubes was mixed 5 times and 180 μL of 2× compound was transferred to the first column of each compound dilution in Row B, leaving Row A empty. 180 μL were added to the other wells in Row A. Serial dilutions were performed down the plate by transferring 50 μL to the next dilution and mixing 5 times, changing tips each time after mixing. Dilutions were stopped at Row F. Row G had no compound present.
A 20 μg/mL solution in Hepes/Saline buffer or human serum, of 21/6 antibody was the positive control and was set aside in a reagent trough to add to cell suspension plate.
The cell staining was accomplished by first harvesting the log-phase Jurkat™ cells by centrifugation in 50 mL tubes (1100 rpm for 5 minutes). The cells were resuspended in 50 mL PBS++, spun, and resuspend in 20 mL PBS++. The cells were stained by adding 20 μL of Calcein AM for 30 minutes R.T. The volume was brought to 50 mL with Hepes/Saline buffer and the cells were counted, spun, and resuspend to 2×10^6 cells/mL in Hepes/Saline buffer or human serum.
The compounds were incubated using the following procedure. In a new flexiplate, 65 μL of stained cells were added to Rows B through H. Then 65 μL of 2× compounds were added to the appropriate rows following the plate setup and mixed 3×. 65 μL of 2×-21/6 antibody were added to Row H and mixed 3×. Finally the plate was incubated at room temperature for 30 minutes.
Fibronectin adhesion was measured using a fluorescent plate reader at EX 485/EM 530 after the following work up procedure. After incubation, the cells were mixed 3× and 100 μL were transferred to the Fibronectin coated plates and incubated at 37° C. for about 35 minutes. Each plate was washed, row by row, by gently pipetting 100 μL of R.T. PBS++ down the sides of the wells and turning the plate 90 degrees to aspirate. This procedure was repeated for a total of 3 washes. Each well was filled with 100 μL after washing by pipetting down the side of the well. […]

[2] = Cassette dosing and serum analysis for determination of oral bioavailability; type: in vivo, rat; conditions: male SD rats, oral cassette of 6 compounds, total dose 10 mg/kg, plasma at 4, 8, 12 h
Description: The oral bioavailability was screened by dosing rats with a cassette, i.e. mixture of 6 compounds per dosing solution. The cassette included 5 test articles and a standard compound, for a total dose of 10 mg/kg. Each compound/test article was converted to the sodium salt with equimolar 1 N NaOH and dissolved in water at 2 mg/mL. The cassette was prepared by mixing equal volumes of each of the six solutions. The cassette dosing solution was mixed well and then the pH was adjusted to 7.5–9. The dosing solution was prepared the day before the study and stirred overnight at room temperature.
Male Sprague Dawley (SD) rats from Charles River Laboratories, 6–8 weeks old were used in this screen. Rats were quarantined for at least one day and had continuous access to food and water. On the night before the administration of the cassette, the rats were fasted for approximately 16 h.
Four SD rats were assigned in each cassette. A single dose of the dosing solution was administered orally to each rat. The dosing volume (5 mL/kg) and time were recorded and rats were fed 2 h after dosing.
Blood samples were collected via cardiac puncture at the following time points: 4 h, 8 h and 12 h. Immediately prior to blood collection, rats were anesthetized with CO2 gas within 10–20 seconds. After the 12-hour samples were collected, the rats were euthanized via CO2 asphyxiation followed by cervical dislocation.
Blood samples were kept in heparinized microtainer tubes under sub-ambient temperature (4° C.) before they were processed. Blood samples were centrifuged (10000 rpm for 5 minutes) and plasma samples were removed and stored in a −20° C. freezer until analyzed for drug levels. Drug levels in the plasma were analyzed using the following protocol for direct plasma precipitation.
The in vivo plasma samples were prepared in a 1.5 mL 96-well plate, by adding, in order, 100 μL of the test plasma, 150 μL of methanol, followed by vortexing for 10–20 seconds. 150 μL of 0.05 ng/μL of an Internal Standard in acetonitrile were added and vortexed for 30 seconds.
The standard curve samples were prepared in a 1.5 mL 96-well plate, by adding, in order, 100 μL of control mouse plasma, followed by 150 μL of methanol and vortexing for 10–20 seconds. 150 μL of 0.05 ng/μL of an Internal Standard in acetonitrile were added and vortexed for 30 seconds. The samples were spiked with 0–200 ng (10 concentrations) of the compound of interest in 50% methanol to obtain a standard curve range of 0.5 ng/mL–2,000 ng/mL. Again, the sample was vortexed for 30 seconds.
The samples were then spun for 20–30 minutes at 3000 rpm in an Eppendorf microfuge before 80–90% of supernatant was transferred into a clean 96-well plate. The organic solvent was then evaporated until the samples were dry (under N2 at 40° C./30–60 min (ZymarkTurbovap)).
The residue was then dissolved in […] mobile phase (50% CH3OH/0.1% TFA). LC/MS/MS was then run using a PE-Sciex API-3000 triple quadurpole mass spectrometer (SN0749707), Perkin-Elmer, Series200auto-sampler, and shimadzu 10A pump. Acquisition was done with PE-Sciex Analyst (v1.1) and data analysis and quantification were accomplished using PE-Sciex Analyst (v1.1). A 5–50 μL sample volume was injected onto a reverse phase ThermoHypersil DASH-18 column (Keystone 2.0×20 mm, 5 μm, PN: 8823025-701) using a mobile phase of 25% CH3OH, 0.1% TFA-100% CH3OH, 0.1% TFA. The run time was about 8 minutes at a flow rate of about 300 μL/minutes.
The Area Under the Curve (AUC) was calculated using the linear trapezoidal rule from t=0 to the last sampling time tx (see Handbook of Basic Pharmacokinetics, Wolfgang A. Ritschel and Gregory L. Kearns, 5th ed, 1999). AUC^0→tx═S((Cn+Cn+1)/2))·(tn+1−tn)[(μg/mL)h]
In the case of the cassette dosing paradigm, samples at 4, 8 and 12 h post extravascular dosing, the AUC was calculated from t=0 to t=12 h.

[3] = IC50, Cell Adhesion to Human Plasma Fibronectin (With Human Serum), with human serum
[4] = IC50, Cell Adhesion to Human Plasma Fibronectin (Without the Human Serum), without human serum

T1 sequence (P13612 34-1032): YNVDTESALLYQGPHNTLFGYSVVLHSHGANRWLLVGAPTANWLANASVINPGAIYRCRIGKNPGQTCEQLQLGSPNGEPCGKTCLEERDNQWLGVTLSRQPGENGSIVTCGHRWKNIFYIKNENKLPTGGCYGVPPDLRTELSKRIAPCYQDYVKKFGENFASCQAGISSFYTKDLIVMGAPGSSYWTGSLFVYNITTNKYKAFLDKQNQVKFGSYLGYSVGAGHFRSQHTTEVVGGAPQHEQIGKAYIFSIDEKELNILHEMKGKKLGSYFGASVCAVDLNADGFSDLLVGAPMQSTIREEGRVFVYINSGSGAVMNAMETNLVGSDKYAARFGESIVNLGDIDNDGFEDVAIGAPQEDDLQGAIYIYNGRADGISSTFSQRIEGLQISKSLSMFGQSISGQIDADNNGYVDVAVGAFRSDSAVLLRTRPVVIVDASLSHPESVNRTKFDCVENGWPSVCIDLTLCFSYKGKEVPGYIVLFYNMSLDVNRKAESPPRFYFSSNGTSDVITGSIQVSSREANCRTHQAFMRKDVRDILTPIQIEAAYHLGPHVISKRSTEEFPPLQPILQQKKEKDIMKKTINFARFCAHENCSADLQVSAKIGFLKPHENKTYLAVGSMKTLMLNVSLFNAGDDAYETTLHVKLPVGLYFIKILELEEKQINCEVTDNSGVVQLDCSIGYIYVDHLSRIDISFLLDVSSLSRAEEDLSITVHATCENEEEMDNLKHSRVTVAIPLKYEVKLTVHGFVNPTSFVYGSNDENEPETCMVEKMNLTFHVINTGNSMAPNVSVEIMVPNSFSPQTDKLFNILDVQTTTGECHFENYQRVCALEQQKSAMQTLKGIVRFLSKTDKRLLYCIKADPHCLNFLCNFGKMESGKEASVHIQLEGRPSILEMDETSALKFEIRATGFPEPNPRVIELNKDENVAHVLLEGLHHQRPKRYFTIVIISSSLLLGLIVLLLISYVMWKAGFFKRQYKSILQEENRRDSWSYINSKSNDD
T1 sequence (P05556 21-798): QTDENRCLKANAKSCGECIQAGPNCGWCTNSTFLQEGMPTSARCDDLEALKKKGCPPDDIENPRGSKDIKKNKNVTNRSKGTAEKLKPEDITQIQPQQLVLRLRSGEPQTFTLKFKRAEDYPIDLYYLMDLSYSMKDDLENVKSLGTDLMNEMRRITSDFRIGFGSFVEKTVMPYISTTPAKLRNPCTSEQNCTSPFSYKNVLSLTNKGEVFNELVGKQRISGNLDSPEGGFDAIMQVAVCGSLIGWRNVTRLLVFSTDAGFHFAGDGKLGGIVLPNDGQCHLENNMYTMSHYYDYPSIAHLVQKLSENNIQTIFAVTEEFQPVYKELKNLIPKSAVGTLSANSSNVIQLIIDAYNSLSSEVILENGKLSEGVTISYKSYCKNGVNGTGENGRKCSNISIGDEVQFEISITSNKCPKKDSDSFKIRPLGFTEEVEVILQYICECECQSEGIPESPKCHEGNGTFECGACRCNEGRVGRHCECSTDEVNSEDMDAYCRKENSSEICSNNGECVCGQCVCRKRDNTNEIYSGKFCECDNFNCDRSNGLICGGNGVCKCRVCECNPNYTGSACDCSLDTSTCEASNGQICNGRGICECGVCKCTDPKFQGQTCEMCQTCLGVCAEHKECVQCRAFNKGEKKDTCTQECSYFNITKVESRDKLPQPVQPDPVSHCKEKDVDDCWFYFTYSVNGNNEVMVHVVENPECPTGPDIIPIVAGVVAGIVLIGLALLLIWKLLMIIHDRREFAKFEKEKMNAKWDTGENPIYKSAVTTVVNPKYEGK

Molecule | IC50 [1, 3] [nM] | IC50 [1, 4] [nM] | AUC (average AUC 0→12 h) [2] | IC50, Cell Adhesion to Human Plasma Fibronectin (With Human Serum) ([1]; with human serum) [µg/mL] | IC50, Cell Adhesion to Human Plasma Fibronectin (Without the Human Serum) ([1]; without human serum) [µg/mL]
CCN(CC)c1ncc(N(C(C)C)S(=O)(=O)c2ccc(F)cc2)c(N[C@@H](Cc2ccc(OC(=O)N(C)C)cc2)C(=O)O)n1 [Example 8] | 264 | 4.87 | 0.5088 (μg/mL)h |  | 
CCN(CC)c1ncc(N(CC(C)C)S(=O)(=O)c2ccc(F)cc2)c(N[C@@H](Cc2ccc(OC(=O)N(C)C)cc2)C(=O)O)n1 [Example 23, 2-{2-diethylamino-5-[(4-fluorobenzenesulfonyl)isobotylamino]pyrimidin-4-ylamino}-3-(4-dimethylcarbamoyloxyphenyl)propionic acid] | 117 | 6.34 | 0.413 (μg/mL)h |  | 
CCN(CC)c1ncc(N(C)S(=O)(=O)c2ccc(F)c(F)c2)c(N[C@@H](Cc2ccc(OC(=O)N(C)C)cc2)C(=O)O)n1 [Example 3] | 251 | 3.3 | 1.5483 (μg/mL)h |  | 
2-{2-diethylamino-5-[(3,4-difluorobenzenesulfonyl) ethylamino]pyrimidin-4-ylamino}-3-(4-dimethylcarbamoyloxyphenyl) propionic acid [Example 12] |  |  | 0.8447 (μg/mL)h | 0.06 | 0.003
CCN(CC)c1ncc(N(CC)S(=O)(=O)c2cc(F)cc(F)c2)c(N[C@@H](Cc2ccc(OC(=O)N(C)C)cc2)C(=O)O)n1 [Example 16, 2-{2-diethylamino-5-[(3.5-difluorobenzenesulfonyl)ethylamino]pyrimidin-4-ylamino}-3-(4-dimethylcarbamoyloxyphenyl) propionic acid] | 108 | 1.67 | 0.1721 (μg/mL)h |  | 
CCN(CC)c1ncc(N(C)S(=O)(=O)c2cc(F)ccc2F)c(NC(Cc2ccc(OC(=O)N(C)C)cc2)C(=O)O)n1 (stereo not drawn) [Example 25] |  |  | 0.4559 (μg/mL)h | 6.72 (≈ 11.1 µM) | 0.006 (≈ 0.00989 µM)
2-{2-diethylamino-5-[(4-chlorobenzenesulfonyl)ethylamino] pyrimidin-4-ylamino}-3-(4-dimethylcarbamoyloxyphenyl)propionic acid [Example 13] |  |  | 1.5806 (μg/mL)h | 0.075 | 0.004
CCN(CC)c1ncc(N(C)S(=O)(=O)c2cc(Cl)cc(Cl)c2)c(N[C@@H](Cc2ccc(OC(=O)N(C)C)cc2)C(=O)O)n1 [Example 19] | 133 | 5.31 | 0.0697 (μg/mL)h |  | 
CCN(CC)c1ncc(N(CC2CC2)S(=O)(=O)c2ccc(F)cc2)c(N[C@@H](Cc2ccc(OC(=O)N(C)C)cc2)C(=O)O)n1 [Example 14, 2-{2-diethylamino-5-[(4-fluorobenzenesulfonyl)cylclopropylmethylamino]pyrimidin-4-ylamino}-3-(4-dimethylcarbamoyl-oxyphenyl)propionic acid] | 63.6 | 1.59 | 0.7164 (μg/mL)h |  | 
CCN(CC)c1ncc(N(CC)S(=O)(=O)c2cccc(F)c2F)c(NC(Cc2ccc(OC(=O)N(C)C)cc2)C(=O)O)n1 (stereo not drawn) [Example 26, 2-{2-diethylamino-5-[(2.3-difluorobenzenesulfonyl)ethylamino]pyrimidin-4-ylamino}-3-(4-dimethylcarbamoyloxyphenyl) propionic acid] |  |  | 0.3392 (μg/mL)h | 0.01848 (≈ 0.0298 µM) | 0.001 (≈ 0.00161 µM)
CCN(CC)c1ncc(N(C(C)C)S(=O)(=O)c2ccc(F)c(F)c2)c(NC(Cc2ccc(OC(=O)N(C)C)cc2)C(=O)O)n1 (stereo not drawn) [Example 10, 2-{2-diethylamino-5-[(3,4-difluorobenzenesulfonyl)isopropylamino]pyrimidin-4-ylamino}-3-(4-dimethylcarbamoyloxyphenyl) propionic acid] | 404 | 7.33 | 0.1215 (μg/mL)h |  | 
CCN(CC)c1ncc(N(C)S(=O)(=O)c2cc(F)cc(F)c2)c(N[C@@H](Cc2ccc(OC(=O)N(C)C)cc2)C(=O)O)n1 [Example 15, 2-{2-diethylamino-5-[(3.5-difluorobenzenesulfonyl)methylamino]pyrimidin-4-ylamino}-3-(4-dimethylcarbamoyloxypheyl) propionic acid] | 205 | 1.51 | 0.2098 (μg/mL)h |  | 
